“And” between values parts separate entries of the source, which are not always exact repeats. Equal values may be shown once.
Assays:
[1] = molecular target: T1, xanthine oxidase (Bos taurus, UniProt P80457); assay: In vitro determination of xanthine oxidase (XOD) inhibition; type: biochemical; conditions: xanthine oxidase from butter milk, xanthine substrate, pH 7.4, 37° C.
T1 construct: purchased Sigma Chemical Company; host or cells: butter milk
Method: (1) Preparation of test compounds:
Test compounds (compounds of Ex. No. listed in Table 1) were dissolved in dimethylsulfoxide and diluted with a 50 mM phosphate buffer to prepare aqueous solutions respectively having predetermined concentrations.
The inhibition rate was determined by the following equation: [formula]
The inhibition (%) was determined on each test compound prepared according to (1), and the IC50 value on the xanthine oxidase (XOD) inhibition was calculated from the value of inhibition.

[2] = system: serum uric acid; assay: Determination of oral administration: lowering of serum uric acid in mice; type: in vivo, ICR male mice; conditions: Mus musculus; ICR male mice, oral, 1 mg/kg, 2 hours after administration, serum; read-out: Activity of lowering uric acid
Method: Test compounds suspended in a 5% gum arabic solution was forcibly administered by oral administration (compounds of Ex. No. of Table 2, dose: 1 mg/kg) to ICR male mice (age: about 7 weeks) (one group: 6 mice) by means of an oral probe. 2 hours after the administration, thoracotomy was conducted under etherization to collect blood from the heart, and serum was removed by a conventional process. The serum uric acid was measured by a biochemical automatic analyzer (Flexigem; Electro-Nucleonics, Inc.) by using a uric acid measurement kit (UA reagent; International Reagent) to determine the percentage of the lowering of uric acid. [formula]

[3] = system: interleukin 1 production; assay: Interleukin 1 production inhibitory activity (LPS, abdominal exuded macrophage, ELISA); type: cell-based, BALB/c mouse; conditions: 10^-6 M, 1 μg/ml LPS, 24 hours, mouse macrophage
Method: 1 ml of a 5% oyster glycogen solution was intra-abdominally administered to a BALB/c mouse (male, 8 weeks in age), and 4 days after the administration, the infiltrated abdominal exuded cells were adhered to a plastic dish for 2 hours, and 1 μg/ml of LPS was allowed to act on macrophage (1×10^6 cells). Interleukin 1 extricated on the supernatant in 24 hours was measured by an ELISA technique. The test compound (compounds of Ex. No. described in Table 3) was prepared so as to have a concentration of 10^-6 M, and the interleukin 1 production inhibitory activity was, expressed in terms of the percentage inhibition based on the amount of production of the control.

[4] = system: collagen arthritis; assay: Collagen arthritis inhibitory activity (bovine II type collagen in rats); type: in vivo, Lewis rats; conditions: 6 weeks; for Swelling: 5 times per week, right foot volume increase, control 45.5 ± 5.1; for Antibody titer of anti-collagen: serum, ELISA, control 2.04 ± 0.36
Method: An emulsion comprising a bovine II type collagen and incomplete Freund's adjuvant in a proportion of 1:1 were intradermally injected to Lewis rats (male, about 6 weeks in age) (one group: 8 […]) at the region of the back so that the amount of antigen was 2 mg/rat, thereby inducing arthritis. The compound of Ex. No. 35 was suspended in a 5% gum arabic solution, and orally administered 5 times per week in two groups of 10 mg/kg and 50 mg/kg from the sensitized day. Only the gum arabic solution was administered to the control. Then 6 weeks after the sensitization, the percentage increase in the volume of the right foot was measured and expressed in terms of the percentage swelling, and the anti-collagen antibody titer of the serum was measured by the ELISA technique.

T1 sequence (P80457 whole entry): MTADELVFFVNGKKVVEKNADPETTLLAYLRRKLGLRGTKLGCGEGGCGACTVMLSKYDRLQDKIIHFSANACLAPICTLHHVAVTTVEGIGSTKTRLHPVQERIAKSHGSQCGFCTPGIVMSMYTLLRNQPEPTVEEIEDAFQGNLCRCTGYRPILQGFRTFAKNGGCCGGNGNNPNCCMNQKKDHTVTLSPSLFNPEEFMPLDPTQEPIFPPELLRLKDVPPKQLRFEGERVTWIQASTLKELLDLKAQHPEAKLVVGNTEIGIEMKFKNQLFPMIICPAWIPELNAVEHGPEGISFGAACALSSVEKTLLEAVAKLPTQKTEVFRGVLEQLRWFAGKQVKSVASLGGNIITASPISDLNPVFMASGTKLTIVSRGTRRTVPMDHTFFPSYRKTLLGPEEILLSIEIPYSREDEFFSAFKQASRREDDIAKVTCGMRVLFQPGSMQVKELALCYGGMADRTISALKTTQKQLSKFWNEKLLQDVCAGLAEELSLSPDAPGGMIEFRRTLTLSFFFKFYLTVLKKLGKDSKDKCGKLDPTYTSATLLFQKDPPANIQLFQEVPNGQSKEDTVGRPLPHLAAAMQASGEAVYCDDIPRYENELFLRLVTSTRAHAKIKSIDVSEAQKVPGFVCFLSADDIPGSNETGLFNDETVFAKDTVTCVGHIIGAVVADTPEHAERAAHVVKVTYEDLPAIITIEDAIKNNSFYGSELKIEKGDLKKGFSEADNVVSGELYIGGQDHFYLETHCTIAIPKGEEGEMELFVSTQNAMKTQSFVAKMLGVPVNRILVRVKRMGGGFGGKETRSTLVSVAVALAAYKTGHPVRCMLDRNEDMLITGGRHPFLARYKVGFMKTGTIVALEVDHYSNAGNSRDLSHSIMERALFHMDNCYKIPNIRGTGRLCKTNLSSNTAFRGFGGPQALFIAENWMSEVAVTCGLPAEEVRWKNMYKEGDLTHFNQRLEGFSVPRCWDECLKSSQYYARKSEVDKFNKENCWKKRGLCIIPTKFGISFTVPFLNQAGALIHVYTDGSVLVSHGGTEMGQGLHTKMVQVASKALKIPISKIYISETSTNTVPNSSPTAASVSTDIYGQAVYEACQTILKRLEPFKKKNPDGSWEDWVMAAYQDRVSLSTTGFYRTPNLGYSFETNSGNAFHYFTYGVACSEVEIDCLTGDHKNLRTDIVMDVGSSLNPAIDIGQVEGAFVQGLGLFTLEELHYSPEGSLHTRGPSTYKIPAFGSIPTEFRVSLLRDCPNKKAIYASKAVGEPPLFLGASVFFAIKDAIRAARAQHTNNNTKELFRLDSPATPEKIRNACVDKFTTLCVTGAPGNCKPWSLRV

Row | SMILES | IC50 [1] | inhibition in vivo at 1 mg/kg [2] | inhibition at 1 µM [3] | Swelling ([4]; 10 mg/kg oral, *P < 0.05) | Antibody titer of anti-collagen ([4]; 10 mg/kg oral) | Swelling ([4]; 50 mg/kg oral, **P < 0.01) | Antibody titer of anti-collagen ([4]; 50 mg/kg oral)
1 | Cc1ccc(C(=O)c2ccc(-c3nc(C)c(C(=O)O)s3)cc2)cc1 [Example 74, 4-Methyl-2-(4-(4-methylbenzoyl)phenyl)-5-thiazolecarboxylic acid] | 4.8 nM | 39% | 52% |  |  |  | 
2 | Cc1nc(-c2ccc(C(F)(F)F)cc2)sc1C(=O)O [Example 6, 4-Methyl-2-(4-trifluoromethylphenyl)-5-thiazolecarboxylic acid] | 310 nM |  | 38% |  |  |  | 
3 | Cc1nc(-c2ccc(C(=O)c3ccccc3)cc2)sc1C(=O)O [Example 20, 2-(4-Benzoylphenyl)-4-methyl-5-thiazolecarboxylic acid] | 6 nM and 6.2 nM | 18% | 65% | 25.4 ± 5.3% | 1.88 ± 0.20 μU/ml | 21.2 ± 4.2% | 1.68 ± 0.32 μU/ml
4 | Cc1nc(-c2ccc(OCc3ccc(F)cc3)c(Cl)c2)sc1C(=O)O [Example 58, 2-(3-Chloro-4-(4-fluorobenzyloxy)phenyl)-4-methyl-5-thiazolecarboxylic acid] | 3.4 nM | 18% | 19% |  |  |  | 
5 | Cc1ccc(C(=O)c2ccc(-c3nc(C)c(C(=O)O)s3)cc2)c(C)c1 [Example 75, 2-(4-(2,4-Dimethylbenzoyl)phenyl)-4-methyl-5-thiazolecarboxylic acid] | 0.83 nM | 33% | 48% |  |  |  | 
6 | Cc1nc(-c2cccc(C(F)(F)F)c2)sc1C(=O)O [Example 5, 4-Methyl-2-(3-trifluoromethylphenyl)-5-thiazolecarboxylic acid] | 0.63 nM | 37% | 60% |  |  |  | 
7 | Cc1nc(-c2cc(Cl)cc(Cl)c2)sc1C(=O)O [Example 27, 2-(3,5-Dichlorophenyl)-4-methyl-5-thiazolecarboxylic acid] | 10 nM |  | 43% |  |  |  | 
8 | Cc1nc(-c2cc(C(F)(F)F)cc(C(F)(F)F)c2)sc1C(=O)O [Example 26, 2-(3,5-Bistrifluoromethylphenyl)-4-methyl-5-thiazolecarboxylic acid] | 5.7 nM | 63% | 57% |  |  |  | 

More lines, main results first:

Row | IC50 [1] | SMILES | inhibition in vivo at 1 mg/kg [2] | inhibition at 1 µM [3] | Swelling ([4]; 10 mg/kg oral, *P < 0.05) | Antibody titer of anti-collagen ([4]; 10 mg/kg oral) | Swelling ([4]; 50 mg/kg oral, **P < 0.01) | Antibody titer of anti-collagen ([4]; 50 mg/kg oral)
9 | 2.9 nM | CCOCCOc1ccc(-c2nc(C)c(C(=O)O)s2)cc1Br [Example 64, 2-(3-Bromo-4-(2-ethoxyethyloxy)phenyl)-4-methyl-5-thiazolecarboxylic acid] | 25% | 28% |  |  |  | 
10 | 1.6 nM | Cc1nc(-c2ccc(N3CCCCC3)c([N+](=O)[O-])c2)sc1C(=O)O [Example 44, 4-methyl-2-(3-nitro-4-piperidinophenyl)-5-thiazolecarboxylic acid] | 83% | 22% |  |  |  | 
11 | 0.67 nM | Cc1nc(-c2ccc(OCCC(C)C)c([N+](=O)[O-])c2)sc1C(=O)O [Example 40, 2-(4-Isopentyloxy-3-nitrophenyl)-4-methyl-5-thiazolecarboxylic acid] | 85% | 36% |  |  |  | 
12 | 1.5 nM | Cc1nc(-c2ccc(OCC(C)C)c(F)c2)sc1C(=O)O [Example 67, 2-(3-fluoro-4-isobutyloxyphenyl)-4-methyl-5-thiazolecarboxylic acid] | 50% | 48% |  |  |  | 
13 | 2.4 nM | Cc1nc(-c2ccc(OC(C)C)c(Cl)c2)sc1C(=O)O [Example 50, 2-(3-Chloro-4-isopropoxyphenyl)-4-methyl-5-thiazolecarboxylic acid] | 20% | 42% |  |  |  | 
14 | 1.8 nM | Cc1nc(-c2ccc(N3CCOCC3)c([N+](=O)[O-])c2)sc1C(=O)O [Example 45, 4-methyl-2(4-morpholino-3-nitrophenyl)-5-thiazolecarboxylic acid] | 88% | 18% |  |  |  | 
15 | 0.64 nM | Cc1nc(-c2ccc(OCC(C)(C)C)c([N+](=O)[O-])c2)sc1C(=O)O [Example 43, 2-(4-neopentyloxy-3-nitrophenyl)-4-methyl-5-thiazolecarboxylic acid] | 85% | 39% |  |  |  | 
16 | 2.3 nM | CCOc1ccc(-c2nc(C)c(C(=O)O)s2)cc1Cl [Example 49, 2-(3-chloro-4-ethoxyphenyl)-4-methyl-5-thiazolecarboxylic acid] | 35% | 48% |  |  |  | 
17 | 2.7 nM | Cc1nc(-c2ccc(OCCC(C)C)c(Cl)c2)sc1C(=O)O [Example 52, 2-(3-Chloro-4-isopentyloxyphenyl)-4-methyl-5-thiazolecarboxylic acid] | 47% | 33% |  |  |  | 

Source: patent US5614520A, “2-arylthiazole derivatives and pharmaceutical composition thereof” (priority 1990, dated 1997)
